Key:
CXCL16 [1] = test: CXCL16 mRNA in SK-HEP1 cells administered bile acids; assay type: cell-based, human; settings: 24 hours
Source text: FIG. 34A is a dot plot showing CXCL16 mRNA levels measured by real-time PCR in SK-HEP1 cells administered different bile acids, in accordance with embodiments of the invention. n=6, p<0.05, one-way ANOVA.
(§1) Primary mice liver sinusoidal endothelia cells were isolated as previously described (Limmer et al., Nat. Med., 6: 1348-1354 (2000), incorporated by reference herein). Briefly, mice were CO2 euthanized, and then the portal vein was cannulated, and the liver was perfused with 0.05% collagenase in Ca^2+ deprived medium. Liver cells were dissociated, and parenchymal cells were killed by incubation in 0.04% collagenase in Gey's balanced salt solution at 37° C. for 15 minutes. Then density gradient centrifugation was performed using Nycodenz solution at the final solution of 1.089 g/cm^3. Liver sinusoidal endothelial cells (LSEC) were isolated using anti-LSEC microbeads (Miltenyi, Bergisch Gladbach, Germany) according to the manufacturer's instructions. LSECs or the human SK-HEP1 cell line (ATCC, HTB-52) were administered different bile acids for 24 hours. Gene expression was analyzed by real-time PCR. Taurocholic acid (TCA), chenodeoxycholic acid (CDCA), deoxycholic acid (DCA), and taurodeoxycholic acid (TDCA) were purchased from Sigma (now Millpore-Sigma, St. Louis, Mo., USA). […]

hepatic NKT cells [2] = test: In vivo bile acids feeding, hepatic NKT cell levels; settings: ABX-administered mice, oral gavage 6 mg/15 g body weight at 48, 24 and 16 hrs
Source text: Mice were kept on ABX cocktail and fresh ABX was replaced every other day. Mice were fed with bile acids by oral gavage 48, 24 and 16 hrs prior to sacrifice.

CXCL16 [3] = test: CXCL16 mRNA in primary murine LSECs administered bile acids; assay type: cell-based, mice; settings: primary murine LSECs in vitro, 24 hours
Source text: FIG. 28E is a dot plot showing CXCL16 mRNA levels of isolated LSECs administered different bile acids, in accordance with embodiments of the invention. n=5, p<0.05, one-way ANOVA.
FIG. 28F is a dot plot showing CXCL16 mRNA levels of isolated LSECs administered a combination of T-b-MCA with T-w-MCA or ω-MCA. n=5, p<0.05, one-way ANOVA.
as §1, with “PCR.” for “PCR. Taurocholic acid (TCA), chenodeoxycholic acid (CDCA), deoxycholic acid (DCA), and taurodeoxycholic acid (TDCA) were purchased from Sigma (now Millpore-Sigma, St. Louis, Mo., USA).”

[4] = reported; cited from earlier work
hepatic NKT cells [5] = test: Flow cytometry of liver and spleen immune cell subsets of treated mice; assay type: in vivo; settings: single antibiotic; for hepatic CD4+ or CD8+ T cells: FIGS. 29H and 29I; for hepatic NKT cells: naïve C57BL/6 mice
Protocol: Cells were surface-labelled with the indicated antibodies for 15 min at 4° C. Intracellular staining using a Foxp3/transcription factor staining buffer set (eBioscience, now part of ThermoFisher Scientific, Waltham, Mass., USA) was used according the manufacturer's instructions. Flow cytometry was performed on a BD LSRFortessa platform (BD Biosciences, San Jose, Calif., USA) and results were analyzed using FlowJo software version 9.3.1.2 (TreeStar, Ashland, Oreg., USA). Dead cells were excluded by using live/dead fixable near-IR dead cell staining kit (ThermoFisher Scientific).
The following antibodies were used for flow cytometry analysis: anti-TCRβ-BV510 (clone H57-587, Biolegend, San Diego, Calif., USA), PBS57/CD1d-tetramer-APC (NIH core facility, Bethesda, Md., USA), anti-CXCR6-FITC (clone SA051D1, Biolegend), anti-CD3-PE (clone 17A2, Biolegend), anti-CD4-PE (clone RM4-5, Biolegend), anti-CD4-Alexa Fluor 700 (clone GK1.5, Biolegend), anti-CD8-BV210 (clone 53-61 Biolegend), anti-CD19-PerCP/Cy5.5 (clone eBiolD3, eBioscience), anti-CD49b (clone DX5, eBioscience), anti-TCRγ/δ-PE, (clone GL3, BD pharmingen, BD Biosciences), anti-CD11b-BV421 (clone M1/70, Biolegend), anti-Ly6G-Alexa Fluor 700 (clone 1A8, Biolegend), anti-Ly6C-APC (clone HK1.4, Biolegend), anti-CD44-PE/Cy7 (clone IM7, eBioscience), anti-CD62L-PerCP/Cy5.5 (MEL-14, Biolegend), anti-CD69-Pacific blue (clone H1.2F3, Biolegend), anti-CD25-FITC (clone 7D4, BD pharmingen), anti-4-1BB-PE (clone 17B5, Biolegend), anti-Foxp3-Alexa Fluor 488 (clone 22F6, Biolegend), anti-Tbet-Pacific Blue (clone 4B10, Biolegend), anti-RORγ-PE (clone B2D, eBioscience), anti-PLZF-PerCP/Cy5.5 (clone 9E12, Biolegend), anti-CD1d-PE (clone 1B1, eBioscience), anti-IFNγ-PE (clone XMG1.2, BD Biosciences), and anti-TNFα-PerCP/Cy5.5 (clone MP6-XT22, Biolegend).
The following markers were used for identifying different immune cell subsets: TCRβ^+CD1d-Teteramer^+ for NKT cells, CD3^+CD4^hi for hepatic CD4^+ T cells, CD3^+CD8^+ for CD8^+ T cells, CD3^−CD19^+ for B cells, CD3^−CD49b^+ for NK cells, CD3^+TCRγ/δ^+ for γ/δ T cells, CD11b^+Ly6G^+Ly6C^lo for G-MDSC. Absolute numbers were calculated by multiplying frequencies obtained from flow cytometry by the total live mononuclear cell count, and then divided by liver weight.

stool bacteria = test: Stool bacteria analysis by 16S rRNA sequencing; assay type: in vivo, mice
Protocol: (§2) FIG. 33A is a line graph showing stool bacteria analysis performed by 16S rRNA sequencing, in accordance with embodiments of the invention. Five week old mice were administered vancomycin for one week. Then vancomycin was stopped, and mice were given oral gavage of C. scindens or vehicle (cessation). Measurements were taken twenty-four hours after gavage. Alpha diversity is shown.
as §2, with “33B” for “33A”, “dot plot” for “line graph”, “Beta” for “Alpha”
Mice were fed with vancomycin in drinking water (Hospira, 0.5 g/L) for one week. Fresh antibiotic water was replaced every other day. One week later vancomycin was stopped, and the mice were given oral gavage of 10^9 C. scindens or vehicle (anaerobic glycerol) every day for 5 days. C. scindens was purchased from ATCC (35704), and grown under anaerobic conditions. One day after gavage, the colonization of C. scindens were confirmed by real-time PCR using primers specific for C. scindens.
Mouse stool DNA extraction and 16S V4 tregion amplification were performed on the liquid handling robots (epMotion 5075 and epMotion 5073, Eppendorf, Hamburg, Germany). The V4 region of the 16S rDNA gene (515F-806R) was sequenced, generating partially overlapping, paired-end reads on the Illumina MiSeq platform (Illumina, San Diego, Calif., USA). After quality control filtering, a total of 3,979,728 reads were processed with an average of 132,657 reads per sample. The demultiplexed FASTQ files containing the 16S rRNA gene sequences were filtered for chimeric sequences using the USEARCH (Edgar, Bioinformatics, 26: 2460-2461 (2010), incorporated by reference herein; version 8.1.1831) utility's UCHIME implementation and the ‘gold’ database (version microbiomeutil-r20110519). The reads were then binned into Operational Taxonomic Units (OTUs) at 97% similarity using USEARCH's cluster_otus command. The OTUs thus obtained were classified and aligned using QIIME (Caporaso et al., Nat. Methods, 7: 335-336 (2010), incorporated by reference herein; version 1.9.1) scripts. The assign_taxonomy.py script was used to assign taxonomy using the default RDP method (Wang et al., Appl. Environ. Microbiol., 73: 5261-5267 (2007), incorporated by reference herein) and the default GreenGenes database (DeSantis et al., Appl. Environ. Microbiol., 72: 5069-5072 (2006), incorporated by reference herein). This provided insight into the larger trends at higher taxonomic levels (such as order Clostridiales).
Next, the possible role of Clostridium species on liver NKT cell accumulation was tested in a colonization experiment. Clostridium scindens was chosen because it is commonly found in both mice and human and has a conserved bai (“bile acid inducible”) gene operon for the 7α-dehydroxylation reaction. Mice were fed with vancomycin for one week to induce hepatic NKT cells, then vancomycin was stopped, and the mice were given C. scindens or vehicle. The successful colonization with Clostridium scindens was confirmed (FIG. 32). One day after oral gavage, fecal bacterial were analyzed by 16S rRNA sequencing (FIGS. 33A and 33B, Table 1).

Clostridum Cluster XIVa = test: Stool levels of Clostridium Cluster XIVa by real-time PCR; assay type: in vivo, mice; settings: single antibiotic administration
Protocol: FIG. 31 is a dot plot showing the stool levels of Clostridum Cluster XIVa from single antibiotic administration measured by real-time PCR. Mice were administered vancomycin, neomycin, cefoparazone or H2O. n=4 for H2O, 10 for vancomycin, 5 for neomycin, p<0.05, one-way ANOVA.
The 7α-dehydroxylation reaction is the most quantitatively important process performed by the gut bacteria in the production of secondary bile acids. This multistep biochemical process is restricted to a narrow phylogenetic group of gram-positive bacterial species belonging to the Clostridium cluster XIV.

[6] = oral vancomycin, cited from earlier work
[7] = fecal bacteria, one day after oral gavage

Row | Compound | cxcl16 mRNA expression (CXCL16 [1]) | bile acids in the gut [4] | hepatic CD4+ or CD8+ T cells (hepatic NKT cells [5]) | hepatic NKT cells (hepatic NKT cells [5]) | Clostridium in stool (Clostridum Cluster XIVa) | also measured
1 | C[C@H](CCC(=O)O)[C@H]1CC[C@H]2[C@@H]3[C@H](O)C[C@@H]4C[C@H](O)CC[C@]4(C)[C@H]3CC[C@]12C [CDCA, chenodeoxycholic acid] | induced |  |  |  |  | hepatic NKT accumulation (hepatic NKT cells [2]): enhanced NKT cell accumulation
2 | C[C@H](CCC(=O)NCCS(=O)(=O)O)[C@H]1CC[C@H]2[C@@H]3[C@@H](O)[C@@H](O)[C@@H]4C[C@H](O)CC[C@]4(C)[C@H]3CC[C@]12C [T-β-MCA, Tauro-β-muricholic acid] |  |  |  |  |  | cxcl16 mRNA expression (CXCL16 [3]): induced
3 | C[C@H](CCC(=O)NCCS(=O)(=O)O)[C@H]1CC[C@H]2[C@@H]3[C@H](O)C[C@@H]4C[C@H](O)CC[C@]4(C)[C@H]3C[C@H](O)[C@]12C [TCA, Taurocholic acid] | induced |  |  |  |  | 
4 | CCN1CCN(C(=O)N[C@@H](C(=O)N[C@@H]2C(=O)N3C(C(=O)O)=C(CSc4nnnn4C)CS[C@H]23)c2ccc(O)cc2)C(=O)C1=O [cefoperazone] |  | deplete secondary bile acids and increase primary bile acids in the gut | No significant changes | increase of liver NKT cells |  | 
5 | CN[C@H](CC(C)C)C(=O)N[C@H]1C(=O)N[C@@H](CC(N)=O)C(=O)N[C@H]2C(=O)N[C@H]3C(=O)N[C@H](C(=O)N[C@H](C(=O)O)c4cc(O)cc(O)c4-c4cc3ccc4O)[C@H](O)c3ccc(c(Cl)c3)Oc3cc2cc(c3O[C@@H]2O[C@H](CO)[C@@H](O)[C@H](O)[C@H]2O[C@H]2C[C@](C)(N)[C@H](O)[C@H](C)O2)Oc2ccc(cc2Cl)[C@H]1O [vancomycin] |  | deplete secondary bile acids and increase primary bile acids in the gut | No significant changes | sufficient to increase hepatic NKT cells | depleted Clostridium | Bacteroidales (stool bacteria; [7]): 0.0%; Burkholderiales (stool bacteria; [7]): 4.4%; Clostridiales (stool bacteria; [7]): 3.9%; Enterobacteriales (stool bacteria; [7]): 10.7%; Lactobacillales (stool bacteria; [7]): 43.7%; Verrucomicrobiales (stool bacteria; [7]): 34.3%; change of stool bacteria populations, in words (stool bacteria; vancomycin compared to H2O group, C. scindens gavage after vancomycin): reduction of Clostridiales and Bacteroidales but an expansion of Verrucomicrobiales; fecal secondary bile acids ([6]; obese individuals): decreased fecal secondary bile acids; primary bile acids in plasma ([6]; postprandial): postprandial increase in primary bile acids in plasma
6 | neomycin |  |  | No significant changes | little effect | could not remove Clostridium | 
